Consider 8 compounds from ChEMBL document CHEMBL2177036, “Design and validation of bicyclic iminopyrimidinones as beta amyloid cleaving enzyme-1 (BACE1) inhibitors: conformational constraint to favor a bioactive conformation” (J Med Chem, 2012).

A short description of data set [1]: Ratio of drug uptake in brain to plasma in rat at 10 mg/kg, po at 6 hrs. It is filed as ADME, organism-based. The arrangement: dose 10 mg/kg, route oral. Particulars: read-out: BPR.
A short description of data set [2]: Drug uptake in rat brain at 10 mg/kg, po at 6 hrs. Conditions: read-out: Drug uptake. It is filed as ADME, organism-based. Details: dose 10 mg/kg, route oral.
Data set [3] can be described thus: AUC (0 to 6 hrs) in rat at 10 mg/kg po. The data set is classed as ADME, organism-based. The arrangement: time < 6 hr, dose 10 mg/kg, route oral. Particulars: plasma.
Data set [4] in a line: Clearance in rat hepatocytes assessed per 10^6 cells. The data set is classed as ADME, cell-based, Hepatocyte. Particulars: read-out: CLH.
Data set [5] concerns Brain. Briefly: Free drug concentration in rat brain at 10 mg/kg, po at 6 hrs. It is filed as ADME, organism-based. The arrangement: dose 10 mg/kg, route oral. Conditions: in vivo.
Data set [6] can be described thus: Cmax in rat at 10 mg/kg, po at 1 hr. The data set is classed as ADME, organism-based. The arrangement: dose 10 mg/kg, route oral. Conditions: in vivo.
Data set [7] is described as follows: Plasma concentration in rat at 10 mg/kg, po at 6 hrs. It is filed as ADME, organism-based. The arrangement: dose 10 mg/kg, route oral.
Data set [8] in a line: Intrinsic clearance in cynomolgus monkey hepatocytes assessed per 10^6 cells. Conditions: read-out: CLH. It is filed as ADME, cell-based, Macaca fascicularis, Hepatocyte.
The nature of data set [9]: Oral bioavailability in rat at 10 mg/kg. It is filed as ADME, organism-based. Conditions: in vivo.
The nature of data set [10]: Intrinsic clearance in human hepatocytes assessed per 10^6 cells. It is filed as ADME, cell-based, Hepatocyte. Conditions: read-out: CLH.
Data set [11] is described as follows: Intrinsic clearance in rat hepatocytes assessed per 10^6 cells. The data set is classed as ADME, cell-based, Hepatocyte. Particulars: read-out: CLH.
Data set [12] can be described thus: Cmax in rat at 10 mg/kg, po. The data set is classed as ADME, organism-based. The arrangement: dose 10 mg/kg, route oral. Conditions: in vivo.
Data set [13] is described as follows: Apparent permeability across human Caco2 cells. Conditions: Caco-2. It is filed as ADME, cell-based. (Caco-2 cells form a polarised layer with tight junctions and transporters.)
The nature of data set [14]: AUC (0 to 24 hrs) in rat at 10 mg/kg po. The data set is classed as ADME, organism-based. The arrangement: time < 24 hr, dose 10 mg/kg, route oral. Particulars: plasma.

On to `Cc1cnc(N2C[C@H]3C(=O)N(C)C(=N)N[C@@]3(c3cc(-c4cccc(C#N)c4)cs3)C2)nc1`, for which the Kp at 6 h in [1] was below 0.1. Further, in data set [2], the concentration at 6 h came out at 232 nM. The AUC(0-t) at 6 h in [3] came to 111 µM·h.

For `CN1C(=O)[C@@H]2CN(C(=O)c3ccccc3)C[C@]2(c2cc(-c3cccc(C#N)c3)cs2)N=C1N`, in [3], the AUC(0-t) at 6 h was found to be 0.024 µM·h.

In the case of `CN1C(=N)N[C@@]2(c3cc(-c4ccc(F)c(C#N)c4)cs3)CN(C(=O)c3cccc(F)c3)C[C@H]2C1=O`, the AUC(0-t) at 6 h in data set [3] turned out to be 0.3 µM·h. Moreover, the hepatocyte CLint in [4] came out at 46 µL/min/1e6 cells.

`CC#Cc1cncc(-c2csc([C@]34CN(C(=O)c5cccc(F)c5)C[C@H]3C(=O)N(C)C(N)=N4)c2)c1` had an AUC(0-t) at 6 h in [3] of 0.3 µM·h.

In data set [3], `CC#Cc1cncc(-c2csc([C@]34CN(c5cccc(OC(C)C)c5)C[C@H]3C(=O)N(C)C(N)=N4)c2)c1` displayed an AUC(0-t) at 6 h of 3.7 µM·h.

In the case of `CN1C(=O)[C@@H]2CN(c3ncccn3)C[C@]2(c2cc(-c3cccc(C#N)c3)cs2)N=C1N`, the “Drug uptake(free)” value in data set [5] is on record as 1 nM. Also, the Kp at 6 h in [1] was 1. The concentration at 6 h in data set [2] came out at 58 nM; in [7] it was 60 nM. This compound also gave a peak concentration (Cmax) in data set [6] of 1000 nM. The AUC(0-t) at 6 h in data set [3] was 2 µM·h.

With `CN1C(=N)N[C@@]2(c3cc(-c4cccc(C#N)c4)cs3)CN(c3ncc(F)cn3)C[C@H]2C1=O`, the results for the hepatocyte CLint in data set [8], in [10] and in data set [11] were 5.7 µL/min/1e6 cells, 2 µL/min/1e6 cells and 13.5 µL/min/1e6 cells, respectively. In addition, the bioavailability in data set [9] stood at 97%. The compound further returned a peak concentration (Cmax) in [12] of 6100 nM. Further, the Papp in data set [13] came to 15.1 ×10⁻⁶ cm/s. Further, in data set [14], the area under the curve AUC(0-t) at 24 h was found to be 31 µM·h. Further, the “Drug uptake(free)” value in data set [5] is 11 nM. For the same compound, the Kp at 6 h in [1] came to 0.1. For the same compound, the concentration at 6 h in data set [2] worked out at 463 nM. This compound had an AUC(0-t) at 6 h in [3] of 31 µM·h.

Regarding `CN1C(=N)N[C@@]2(c3cc(-c4cccc(C#N)c4)cs3)CN(c3ncc(Cl)cn3)C[C@H]2C1=O`, in [5], the “Drug uptake(free)” value came to 4 nM. Further, the Kp at 6 h in data set [1] came out at 0.1. The concentration at 6 h in data set [2] was found to be 965 nM. In data set [3], this compound had an AUC(0-t) at 6 h of 90 µM·h.

Broadly, the AUC(0-t) is exposure summed from dosing to a finite time, without extrapolation to infinity. Usually Cmax stands for the highest concentration seen after dosing. Broadly, the bioavailability is dose-corrected exposure relative to a reference, in per cent. By Papp is commonly meant the rate of passage across a membrane or cell layer, normalised by area and donor concentration.
